Experimental data published in patent publication US6991778B2, “Use of dendrimers polyl-functionalized with nitroxide groups as contrast enhancing agents in MRI imaging of joints and injectable compositions comprising them” (Nitrosci, priority 1999, dated 2006).
Like-named read-outs stand apart in the source and are kept apart here.

Key:
[1] = In vitro rate of nitroxide reduction by superoxide in the presence of a thiol (EPR); type: in vitro ADME; settings: room temperature; nitroxide 50 micromolar, cysteine 200 micromolar, superoxide flux 10 micromolar/min, pH 7.4
Source text: In vitro rate of nitroxide reduction (Table 1) was undertaken using superoxide in the presence of a thiol, as an in vitro model for activated phagocytic cells. G. M. Rosen, B. E. Britigan, M. S. Cohen, S. P. Ellington and M. J. Barber, Biochim. Biophys. Acta, 969:236-241, 1988; G. M. Rosen and E. J. Rauckman. Biochem. Pharmacol. 26: 675-678, 1977; S. Pou, P. L. Davis, G. L. Wolf and G. M. Rosen, Free Rad. Res. 23: 353-364, 1995; and E. Finkelstein, G. M. Rosen and E. J. Rauckman, Biochim. Biophys. Acta, 802:90-98, 1984. For these determinations, nitroxides [S. Pou, et al, E. Finkelstein, et al., supra, and H. Kuthan, V. Ullrich and R. Estabrook, Biochem. J. 203: 551-558, 1982, (50 micromolar) were added to cysteine (200 micromolar) in the presence of a continued flux of superoxide (10 micromolar/min), generated by the action of xanthine oxidase on xanthine (400 micromolar) in Chelexed sodium phosphate buffer (50 mM, pH 7.4) The rate of superoxide production was estimated by following the superoxide dismutase (30 U/mL) inhibitable reduction of ferricytochrome c at […] using a molar absorbance of 21 mM^−1 cm^−1. H. Kuthan et al. supra. Rates of nitroxide reduction were monitored by EPR spectroscopy at ambient temperature by observing the change of the low-field (the broadened EPR spectrum of each dendrimer-linked nitroxide prevented the use of other peaks to measure rates of reduction) as a function of time.

[2] = Relaxivities (k1) of nitroxides and dendrimers; type: physicochemical; parameters: unit not given here; settings: room temperature, 1.5 T
[3] = in vivo, iv; cited from earlier work
[4] = cited from earlier work
[5] = rabbit; cited from earlier work
[6] = rabbit joints; Bacic, et al. 1997; cited from earlier work
[7] = MRI of rabbit knee joint after intra-articular injection; type: in vivo; settings: 1 mL of stock solution into rabbit knee joint
Description: Rabbits (2.8-3.5 kg) to be used for MRI experiments are sedated with intramuscular Ketamine and Xylazine. Anesthesia is maintained with i. v. sodium pentobarbital as required. Under fluoroscopic guidance, a needle (gauge 25) is placed into the knee joint of a thus-anesthetized rabbit and 1 mL of a stock solution of a nitroxyl functionalized dendrimer of Formula (I) containing 32 nitroxyl functionalizing groups. The rabbit's injected joint is then positioned in a MR imager.

[8] = MRI of shoulder joints after intra-articular injection; type: in vivo, human; settings: 1 mL of 100 μM solution into both shoulder joints, 1.5 Tesla
Description: Into both shoulder joints of a person (45-55 kg), with post-trauma chronic soreness in one of the shoulder joint is injected 1 mL of a stock 100 μM sterile solution in 0.9% normal saline of a dendrimer of Formula (I) containing 32 terminal PROXYL-3-carbamido nitroxide groups using a (gauge 25) needle. Then position the patent in a MR imager (1.5 Tesla MR system, SIGNA; General Electric Medical Systems, Milwaukee, Wis.) and obtain a scan of both joints in the conventional manner.

Row | Molecule | Reduction Rate [1] | Relaxivity (k1) [2] | further results
1 | O=C([O-])CN(CCN(CC(=O)[O-])CC(=O)O)CCN(CC(=O)[O-])CC(=O)O.[Gd+3] [Gd(DTPA), gadolinium (Gd)-DTPA] | – | 4.94 | equilibration throughout the cartilage [3]: ca. 5 hr; relaxivity ([4]; as reported by Keana, et al.): 4.95 mM⁻¹ s⁻¹; relaxivity ([4]; room temperature, 1.5 T): ca. 5
2 | CC1(C)CC(C[N+](C)(C)C)C(C)(C)N1[O].[I-] (stereo not drawn) [3-trimethylaminomethyl-2,2,5,5-tetramethyl-1-pyrrolidinyloxyl iodide] | – | – | in vivo stability [5]: remarkable; affinity toward proteoglycans [6]: high affinity
3 | DAB-dendrimer-(NH-3-CH2-PROXYL)4 [[15]] | – | 0.82 | –
4 | CC1(C)CC(C(=O)O)C(C)(C)N1[O] (stereo not drawn) [[1], 3-carboxy-2,2,5,5-tetramethyl-1-pyrrolidinyloxyl, reference compound] | 0.52 µM/min | 0.19 | –

More lines, main results first:

Row | Reduction Rate [1] | Molecule | Relaxivity (k1) [2] | further results
5 | 0.00 µM/min | DAB-dendrimer-(NH-3-CO-PROXYL)16 [[8]] | 3.19 | –
6 | 7.93 µM/min | DAB-dendrimer-(NH-3-CO-PROXYL)4 [[5]] | 0.82 | –
7 | 0.00 µM/min | DAB-dendrimer-(NH-3-CO-PROXYL)32 [[9]] | 5.73 | articular cartilage in the MR image [7]: readily identifiable; status of the articular cartilage in the MR image [8]: readily identifiable
8 | 0.00 µM/min | DAB-dendrimer-(NH-3-CO-PROXYL)8 [[7]] | 1.69 | –
9 | 7.54 µM/min | TREN-dendrimer-(NH-3-CO-PROXYL)3 [[6]] | 0.57 | –
